In patent EP4692114A1, “CALCITONIN ANALOGUE, AND DERIVATIVE THEREOF AND USE THEREOF” (Hangzhou Sciwind Biosciences Co., Ltd., priority 2023, dated 2024):
*1 amine or outer side, *2 acyl side, *3 side chain or, on linkers, in order; H or OH if unused. Where a SMILES comes first, the peptide text is derived from it. Where no end group is shown, it is not given here. [ ]: non-standard residue; d: D form. The star is where a group is joined. C22 diacid = O=C(O)CCCCCCCCCCCCCCCCCCCCC(=O)*; C20 diacid = O=C(O)CCCCCCCCCCCCCCCCCCC(=O)*; γGlu = O=C(O)[C@H](CCC(=O)[*:2])N[*:1]; βAsp = O=C(O)[C@H](CC(=O)[*:2])N[*:1]; AEEA = NCCOCCOCC(=O)O

T1: human amylin receptor (AMY3) on CHO-K1/Gal5/AMY3 cells (human, UniProt P30988 25-474; O60896 24-148)
T1 sequence (looked up) 1: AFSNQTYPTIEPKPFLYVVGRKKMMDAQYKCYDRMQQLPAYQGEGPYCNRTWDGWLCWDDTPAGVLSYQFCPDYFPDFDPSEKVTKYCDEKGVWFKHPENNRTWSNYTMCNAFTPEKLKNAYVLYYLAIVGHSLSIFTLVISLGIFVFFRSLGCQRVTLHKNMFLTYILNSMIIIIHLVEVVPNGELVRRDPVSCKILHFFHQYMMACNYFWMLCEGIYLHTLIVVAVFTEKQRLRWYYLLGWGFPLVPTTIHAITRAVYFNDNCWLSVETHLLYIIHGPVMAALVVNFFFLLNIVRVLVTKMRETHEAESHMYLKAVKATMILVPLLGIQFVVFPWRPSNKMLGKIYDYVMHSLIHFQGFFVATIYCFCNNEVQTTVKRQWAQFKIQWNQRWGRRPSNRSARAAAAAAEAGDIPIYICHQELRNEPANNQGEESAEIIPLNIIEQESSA
T1 sequence (looked up) 2: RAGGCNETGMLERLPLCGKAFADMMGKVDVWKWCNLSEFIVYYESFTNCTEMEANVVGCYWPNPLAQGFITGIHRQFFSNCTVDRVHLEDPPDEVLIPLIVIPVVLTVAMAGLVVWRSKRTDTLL

T2: human amylin receptors (Homo sapiens, UniProt O60896+P30988)
T2 sequence (P30988 25-474): T1 sequence (looked up) 1
T2 sequence (O60896 24-148 partner): T1 sequence (looked up) 2

B1: calcitonin derivative M37 (peptide)
peptide: {C20 diacid-γGlu}-KSQLSTDVLGRLSQELHRLQDYPRTDVGSGSP-NH2
SMILES: CC(C)C[C@H](NC(=O)[C@H](CCCNC(=N)N)NC(=O)CNC(=O)[C@H](CC(C)C)NC(=O)[C@@H](NC(=O)[C@H](CC(=O)O)NC(=O)[C@@H](NC(=O)[C@H](CO)NC(=O)[C@H](CC(C)C)NC(=O)[C@H](CCC(N)=O)NC(=O)[C@H](CO)NC(=O)[C@H](CCCCN)NC(=O)CC[C@H](NC(=O)CCCCCCCCCCCCCCCCCCC(=O)O)C(=O)O)[C@@H](C)O)C(C)C)C(=O)N[C@@H](CO)C(=O)N[C@@H](CCC(N)=O)C(=O)N[C@@H](CCC(=O)O)C(=O)N[C@@H](CC(C)C)C(=O)N[C@@H](Cc1c[nH]cn1)C(=O)N[C@@H](CCCNC(=N)N)C(=O)N[C@@H](CC(C)C)C(=O)N[C@@H](CCC(N)=O)C(=O)N[C@@H](CC(=O)O)C(=O)N[C@@H](Cc1ccc(O)cc1)C(=O)N1CCC[C@H]1C(=O)N[C@@H](CCCNC(=N)N)C(=O)N[C@H](C(=O)N[C@@H](CC(=O)O)C(=O)N[C@H](C(=O)NCC(=O)N[C@@H](CO)C(=O)NCC(=O)N[C@@H](CO)C(=O)N1CCC[C@H]1C(N)=O)C(C)C)[C@@H](C)O
B2: calcitonin analogue M5 (peptide)
peptide: ASQLSTAVLGRLSQELHRLQDYPRTDVGSGSP-NH2
B3: calcitonin derivative M54 (peptide)
peptide: {C20 diacid}-DASQLSTAVLGRLSEELHRLQDYPRTDVGSGSP-NH2
SMILES: CC(C)C[C@H](NC(=O)[C@H](CCCNC(=N)N)NC(=O)CNC(=O)[C@H](CC(C)C)NC(=O)[C@@H](NC(=O)[C@H](C)NC(=O)[C@@H](NC(=O)[C@H](CO)NC(=O)[C@H](CC(C)C)NC(=O)[C@H](CCC(N)=O)NC(=O)[C@H](CO)NC(=O)[C@H](C)NC(=O)[C@H](CC(=O)O)NC(=O)CCCCCCCCCCCCCCCCCCC(=O)O)[C@@H](C)O)C(C)C)C(=O)N[C@@H](CO)C(=O)N[C@@H](CCC(=O)O)C(=O)N[C@@H](CCC(=O)O)C(=O)N[C@@H](CC(C)C)C(=O)N[C@@H](Cc1c[nH]cn1)C(=O)N[C@@H](CCCNC(=N)N)C(=O)N[C@@H](CC(C)C)C(=O)N[C@@H](CCC(N)=O)C(=O)N[C@@H](CC(=O)O)C(=O)N[C@@H](Cc1ccc(O)cc1)C(=O)N1CCC[C@H]1C(=O)N[C@@H](CCCNC(=N)N)C(=O)N[C@H](C(=O)N[C@@H](CC(=O)O)C(=O)N[C@H](C(=O)NCC(=O)N[C@@H](CO)C(=O)NCC(=O)N[C@@H](CO)C(=O)N1CCC[C@H]1C(N)=O)C(C)C)[C@@H](C)O

Molecular target: T1, human amylin receptor (AMY3) on …
Assay: cell-based or functional assay
Conditions: not given

Row | EC50/nM, CRE-luciferase in amylin receptor/CRE-luc CHO cells [nM] | Molecule
1 | 0.052 | B1
2 | 0.033 | B2
3 | 0.017 | B3

Molecular target: T2, human amylin receptors
Assay: Luciferase assay of amylin (amylin receptor/CRE-luc cell line);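 further: agonist potency from luminescence of cAMP response element-driven luciferase, EC50 derived from a standard curve of signal versus compound concentration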
Type: cell-based
Conditions: stably transfected amylin receptor/CRE-luc CHO cells (CHO-K1/Gal5/AMY3), 24 hours incubation, luciferase readout
From the text: The objective of this assay is to test the activity or potency of calcitonin analogues or derivatives on human amylin receptors in vitro using a luciferase assay.
Using the standard protocol, CHO-K1/Gal5/AMY3 cells (purchased from GenScript, with the calcitonin receptor and the receptor activity modifying peptide (RAMP) constructed already) were transfected with a plasmid containing a luciferase expression cassette driven by multiple copies of cAMP response elements (CREs). The cells were cultured in an F12 medium containing 200 ug/mL Zeocin, 2 ug/mL puromycin, 100 ug/mL hygromycin, and 400 ug/mL G418 to afford a stably transfected amylin receptor/CRE-luc cell line.
To each well of a white 96-well plate was added 50 µL of the tested sample solution at a respective concentration.
The stably transfected amylin receptor/CRE-luc CHO cells were resuspended in the growth medium at a certain density, and 50 µL of the cell suspension was added at a density of about 20000 cells per well to the white 96-well plate containing the tested sample solution. After incubation of 24 hours at 37°C and 5% CO2, 100 µL of a Luciferase substrate was added to each well, incubated for 3 minutes, and finally was tested for luminescence on SpectraMax L (Molecular Devices) with the software SoftMax Pro 7.0.3 GxP. A standard curve was plotted using the fluorescent intensities for calculation of EC50.

Row | EC50 [nM] | Molecule
4 | 0.037 | CC(C)C[C@H](NC(=O)[C@H](CCCNC(=N)N)NC(=O)CNC(=O)[C@H](CC(C)C)NC(=O)[C@@H](NC(=O)[C@H](C)NC(=O)[C@@H](NC(=O)[C@H](CO)NC(=O)[C@H](CC(C)C)NC(=O)[C@H](CCC(N)=O)NC(=O)[C@H](CO)NC(=O)[C@H](C)NC(=O)COCCOCCNC(=O)COCCOCCNC(=O)COCCOCCNC(=O)COCCOCCNC(=O)CC[C@H](NC(=O)CCCCCCCCCCCCCCCCCCC(=O)O)C(=O)O)[C@@H](C)O)C(C)C)C(=O)N[C@@H](CO)C(=O)N[C@@H](CCC(=O)O)C(=O)N[C@@H](CCC(=O)O)C(=O)N[C@@H](CC(C)C)C(=O)N[C@@H](Cc1c[nH]cn1)C(=O)N[C@@H](CCCNC(=N)N)C(=O)N[C@@H](CC(C)C)C(=O)N[C@@H](CCC(N)=O)C(=O)N[C@@H](CC(=O)O)C(=O)N[C@@H](Cc1ccc(O)cc1)C(=O)N1CCC[C@H]1C(=O)N[C@@H](CCCNC(=N)N)C(=O)N[C@H](C(=O)N[C@@H](CC(=O)O)C(=O)N[C@H](C(=O)NCC(=O)N[C@@H](CO)C(=O)NCC(=O)N[C@@H](CO)C(=O)N1CCC[C@H]1C(N)=O)C(C)C)[C@@H](C)O [M63] ({C20 diacid-γGlu-AEEA-AEEA-AEEA-AEEA}-ASQLSTAVLGRLSEELHRLQDYPRTDVGSGSP-NH2)
5 | 0.017 | CC(C)C[C@H](NC(=O)[C@H](CCCNC(=N)N)NC(=O)CNC(=O)[C@H](CC(C)C)NC(=O)[C@@H](NC(=O)[C@H](C)NC(=O)[C@@H](NC(=O)[C@H](CO)NC(=O)[C@H](CC(C)C)NC(=O)[C@H](CCC(N)=O)NC(=O)[C@H](CO)NC(=O)[C@H](C)NC(=O)CC[C@H](NC(=O)CCCCCCCCCCCCCCCCCCCCC(=O)O)C(=O)O)[C@@H](C)O)C(C)C)C(=O)N[C@@H](CO)C(=O)N[C@@H](CCC(=O)O)C(=O)N[C@@H](CCC(=O)O)C(=O)N[C@@H](CC(C)C)C(=O)N[C@@H](Cc1c[nH]cn1)C(=O)N[C@@H](CCCNC(=N)N)C(=O)N[C@@H](CC(C)C)C(=O)N[C@@H](CCC(N)=O)C(=O)N[C@@H](CC(=O)O)C(=O)N[C@@H](Cc1ccc(O)cc1)C(=O)N1CCC[C@H]1C(=O)N[C@@H](CCCNC(=N)N)C(=O)N[C@H](C(=O)N[C@@H](CC(=O)O)C(=O)N[C@H](C(=O)NCC(=O)N[C@@H](CO)C(=O)NCC(=O)N[C@@H](CO)C(=O)N1CCC[C@H]1C(N)=O)C(C)C)[C@@H](C)O [M65] ({C22 diacid-γGlu}-ASQLSTAVLGRLSEELHRLQDYPRTDVGSGSP-NH2)
6 | 0.016 | CC(C)C[C@H](NC(=O)[C@H](CCCNC(=N)N)NC(=O)CNC(=O)[C@H](CC(C)C)NC(=O)[C@@H](NC(=O)[C@H](C)NC(=O)[C@@H](NC(=O)[C@H](CO)NC(=O)[C@H](CC(C)C)NC(=O)[C@H](CCC(N)=O)NC(=O)[C@H](CO)NC(=O)[C@H](C)NC(=O)CC[C@H](NC(=O)CCCCCCCCCCCCCCCCCCC(=O)O)C(=O)O)[C@@H](C)O)C(C)C)C(=O)N[C@@H](CO)C(=O)N[C@@H](CCC(N)=O)C(=O)N[C@@H](CCC(=O)O)C(=O)N[C@@H](CC(C)C)C(=O)N[C@@H](Cc1c[nH]cn1)C(=O)N[C@@H](CCCNC(=N)N)C(=O)N[C@@H](CC(C)C)C(=O)N[C@@H](CCC(N)=O)C(=O)N[C@@H](CC(=O)O)C(=O)N[C@@H](Cc1ccc(O)cc1)C(=O)N1CCC[C@H]1C(=O)N[C@@H](CCCNC(=N)N)C(=O)N[C@H](C(=O)N[C@@H](CCC(N)=O)C(=O)N[C@H](C(=O)NCC(=O)N[C@@H](CO)C(=O)NCC(=O)N[C@@H](CO)C(=O)N1CCC[C@H]1C(N)=O)C(C)C)[C@@H](C)O [M15] ({C20 diacid-γGlu}-ASQLSTAVLGRLSQELHRLQDYPRTQVGSGSP-NH2)
7 | 0.017 | CC(C)C[C@H](NC(=O)[C@H](CCCNC(=N)N)NC(=O)CNC(=O)[C@H](CC(C)C)NC(=O)[C@@H](NC(=O)[C@H](C)NC(=O)[C@@H](NC(=O)[C@H](CO)NC(=O)[C@H](CC(C)C)NC(=O)[C@H](CCC(N)=O)NC(=O)[C@H](CO)NC(=O)[C@H](C)NC(=O)COCCOCCNC(=O)COCCOCCNC(=O)C[C@H](NC(=O)CCCCCCCCCCCCCCCCCCC(=O)O)C(=O)O)[C@@H](C)O)C(C)C)C(=O)N[C@@H](CO)C(=O)N[C@@H](CCC(=O)O)C(=O)N[C@@H](CCC(=O)O)C(=O)N[C@@H](CC(C)C)C(=O)N[C@@H](Cc1c[nH]cn1)C(=O)N[C@@H](CCCNC(=N)N)C(=O)N[C@@H](CC(C)C)C(=O)N[C@@H](CCC(N)=O)C(=O)N[C@@H](CC(=O)O)C(=O)N[C@@H](Cc1ccc(O)cc1)C(=O)N1CCC[C@H]1C(=O)N[C@@H](CCCNC(=N)N)C(=O)N[C@H](C(=O)N[C@@H](CC(=O)O)C(=O)N[C@H](C(=O)NCC(=O)N[C@@H](CO)C(=O)NCC(=O)N[C@@H](CO)C(=O)N1CCC[C@H]1C(N)=O)C(C)C)[C@@H](C)O [M59] ({C20 diacid-βAsp-AEEA-AEEA}-ASQLSTAVLGRLSEELHRLQDYPRTDVGSGSP-NH2)
8 | 0.016 | CC(C)C[C@H](NC(=O)[C@H](CCCNC(=N)N)NC(=O)CNC(=O)[C@H](CC(C)C)NC(=O)[C@@H](NC(=O)[C@H](C)NC(=O)[C@@H](NC(=O)[C@H](CO)NC(=O)[C@H](CC(C)C)NC(=O)[C@H](CCC(N)=O)NC(=O)[C@H](CO)NC(=O)[C@H](C)NC(=O)COCCOCCNC(=O)COCCOCCNC(=O)[C@H](CC(=O)O)NC(=O)CCCCCCCCCCCCCCCCCCC(=O)O)[C@@H](C)O)C(C)C)C(=O)N[C@@H](CO)C(=O)N[C@@H](CCC(=O)O)C(=O)N[C@@H](CCC(=O)O)C(=O)N[C@@H](CC(C)C)C(=O)N[C@@H](Cc1c[nH]cn1)C(=O)N[C@@H](CCCNC(=N)N)C(=O)N[C@@H](CC(C)C)C(=O)N[C@@H](CCC(N)=O)C(=O)N[C@@H](CC(=O)O)C(=O)N[C@@H](Cc1ccc(O)cc1)C(=O)N1CCC[C@H]1C(=O)N[C@@H](CCCNC(=N)N)C(=O)N[C@H](C(=O)N[C@@H](CC(=O)O)C(=O)N[C@H](C(=O)NCC(=O)N[C@@H](CO)C(=O)NCC(=O)N[C@@H](CO)C(=O)N1CCC[C@H]1C(N)=O)C(C)C)[C@@H](C)O [M60] ({C20 diacid}-D[AEEA][AEEA]ASQLSTAVLGRLSEELHRLQDYPRTDVGSGSP-NH2)
